Experimental data published in patent US8173595B2, “Methods and compositions for the inhibition of thrombus formation” (The Board of Trustees of the University of Illinois, priority 2004, dated 2012).
Where no end group is shown, it is not given here. [ ]: non-standard residue; d: D form. The star is where a group is joined. Myristoyl = CCCCCCCCCCCCCC(=O)*; pS = N[C@@H](COP(=O)(O)O)C(=O)O

Columns and labels:
[1] = system: platelets (platelet-rich plasma from healthy donors); test: Ristocetin-induced (vWF-dependent) platelet aggregation in platelet-rich plasma; assay type: cell-based, human
Experimental: (§1) Platelet preparation and aggregation. Blood was drawn from healthy donors, and was anti-coagulated with 1/10 volume of 3.8% trisodium citrate. Platelet-rich plasma (PRP) was obtained by centrifugation at 300×g for 20 min at 22° C. Platelet aggregation was measured using a turbidometric platelet aggregometer at 37° C. with a stirring speed at 1000 rpm. To examine the effects of peptides, various concentrations of each peptide was preincubated with platelets at 22° C. for 5 min. In some experiments, intergrin inhibitor RGDS (1 mM) was also added to exclude the roles of β3 integrins.

[2] = target: T1, 14-3-3 binding to GPIb-IX (Homo sapiens, UniProt P63104); test: Binding of GPIb-IX from platelet lysates to 14-3-3-conjugated beads (Western blot); details: recombinant 14-3-3-MBP beads, FIG. 1B
T1 construct: GPIb-IX: platelet lysate
T1 sequence (P63104 1-245): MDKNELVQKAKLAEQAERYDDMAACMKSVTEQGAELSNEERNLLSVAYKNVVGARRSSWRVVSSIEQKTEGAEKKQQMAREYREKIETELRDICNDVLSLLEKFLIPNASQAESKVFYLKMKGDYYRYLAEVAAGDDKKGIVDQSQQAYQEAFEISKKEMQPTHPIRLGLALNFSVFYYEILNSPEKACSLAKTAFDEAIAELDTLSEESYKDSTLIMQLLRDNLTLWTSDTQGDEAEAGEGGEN
Experimental: 14-3-3 binding to GPIb-IX. Binding of GPIb-IX to 14-3-3-conjugated beads were performed as previously described (Du et al., J. Biol. Chem., 271:7362-7367 (1996)). Briefly, 14-3-3-conjugated Sepharose 4B beads and maltose-binding protein (MBP)-conjugated control beads were preincubated with various concentrations of synthetic peptides at 4° C. for 1 h, and then with platelet lysates for an additional 1 h. The beads were washed three times. Bound GPIb-IX was detected by Western blot with a monoclonal antibody against GPIbα, WM23.

Tail-bleeding time = assay type: in vivo, C57 black mice; details: infused into jugular vein, 5 min circulation, compared with MαC or MαCsc, p<0.0001, FIG. 4B
Experimental: Tail-bleeding time. Bleeding times were performed with 6-8-wk-old adult C57 black mice anesthetized with an intraperitoneal injection of avertin. The internal jugular vein was surgically exposed, and a total volume of 50 μl of a peptide (5 mM) was infused using a 27 G needle. Experiments were performed in a double-blinded fashion. After 5 min, tails were amputated 5 mm from the tail tip, and immersed in a tube containing 0.15M NaCl maintained at 37° C. Bleeding was visually followed and timed. Maximum bleeding time allowed was 10 min after which the tail was cauterized. Statistical differences between the groups were examined using Mann-Whitney test and InStat software.

[3] = system: platelets (platelet-rich plasma); test: Platelet aggregation induced by ADP, collagen or thromboxane A2 analog U46619; assay type: cell-based, human; details: collagen, thromboxane A2 analog U46619, FIGS. 2C, 2D, 2E
Experimental: as §1

platelets = test: Botrocetin-induced platelet agglutination; assay type: cell-based
[4] = system: vWF binding to GPIb-IX on washed human platelets; test: Flow cytometry analysis of ristocetin-induced vWF binding to platelets; assay type: cell-based; details: 10 mM EDTA or RGDS, ristocetin 1 mg/ml, FIG. 3
Experimental: Flow cytometry analysis of VWF binding to platelets. Flow cytometry analysis of vWF binding to platelets has been described previously 8,9. Washed platelets (1.0×10^7/ml) were prepared as described previously (Englund et al., J. Biol. Chem., 276:16952-16959 (2001); Bodnar et al., J. Biol. Chem. 277:47080-47087 (2002)), and resuspended in phosphate-buffered saline (PBS) solution (0.01 M NaH2PO4, 0.15 M NaCl, pH 7.4) containing 10 mM EDTA and 1% BSA. Platelets were preincubated with various concentrations of synthetic peptides at 22° C. for 10 min before incubating with purified vWF (35 μg/ml) and ristocetin (1.0 mg/ml) at 22° C. for 30 min. Platelets were washed once, further incubated in the same buffer containing 10 μg/ml FITC-labeled SZ-29 in the dark at 22° C. for 30 min and then analyzed by flow cytometry. As negative controls, platelets were incubated in the presence of ristocetin alone then incubated with FITC-labeled SZ29.

platelet adhesion to vWF = test: Platelet adhesion under flow in vWF-coated glass capillaries; assay type: cell-based; details: washed platelets, in the presence of RGDS, FIG. 4A
Experimental: Platelet adhesion under flow. Washed platelets (3×10^8/ml) were preincubated with various concentrations of synthetic peptides at 22° C. for 10 min, the platelets were perfused into the vWF-coated glass capillaries using a PhD syringe pump (Harvard Apparatus Inc.) at various shear rates for 8 min. Transient adhesion of platelets on the vWF-coated surface was recorded on video cassette recorder. Adherent platelets were counted in 10 randomly selected fields of 0.25 mm^2 within a 10 second time period.

[5] = system: GPIb-IX-dependent platelet agglutination; test: Ristocetin-induced GPIb-IX-specific platelet agglutination in the presence of RGDS; assay type: cell-based, human; details: PRP, in the presence of 1 mM RGDS, ristocetin 1.25 mg/ml, FIG. 2A, 2B
Experimental: as §1

## CCCCCCCCCCCCCC(=O)OC(=O)CCCCCCCCCCCCC [myristic anhydride (MA), myristic anhydride]
[1]; PRP, 100 μM, FIG. 1D, 1E
  ristocetin-induced platelet aggregation: no effect

## C13H27CONH-LSISYGSHR (Myristoyl-LSISYGSHR) [MαCsc, myristoylated scrambled control peptide]
[2]
  binding of GPIb-IX to 14-3-3 beads: not
[1]; PRP, 100 μM, FIG. 1D, 1E
  ristocetin-induced platelet aggregation: no significant effect

## C13H27CONH-SIRYSGHDL (Myristoyl-SIRYSGHDL) [MSDαC, myristoylated peptide replacing phosphorylated serine 609 with aspartic acid to simulate phosphoserine]
[1]; PRP preincubated at room temperature for 5 min, FIG. 5
  ristocetin-induced platelet aggregation: completely inhibited

## C13H27CONH-SIRYSGHSL (Myristoyl-SIRYSGHSL) [MαC]
[2]
  binding of GPIb-IX to 14-3-3 beads: not
[1]; PRP, 100 μM, FIG. 1D, 1E
  ristocetin-induced platelet aggregation: no significant effect

## C13H27CONH-SIRYSGHpSL (Myristoyl-SIRYSGH[pS]L) [MPαC]
Tail-bleeding time
  median tail bleeding time: significantly prolonged
[3]
  platelet aggregation induced by platelet agonists: no inhibitory effect
platelets
  botrocetin-induced platelet agglutination: inhibited
[2]
  binding of GPIb-IX to 14-3-3 beads: abolished
[4]
  ristocetin-induced vWF binding to platelets: inhibited
Platelet adhesion to vWF
  adhesion of platelets on vWF surface under flow: almost no adhesion
[1]; PRP preincubated with increasing concentrations of peptide, FIG. 1C
  vWF-dependent platelet aggregation induced by ristocetin: dose-dependently inhibited
[5]
  ristocetin-induced platelet agglutination: completely inhibited

## SIRYSGHpSL [PαC]
[1]; PRP, 100 μM, FIG. 1D, 1E
  ristocetin-induced platelet aggregation: no effect
